We go through six molecules from patent US20230114459A1, “Composition for Use in the Prophylaxis and Treatment of Viral Infections of the Asfarviridae Family” (priority 2020, published 2023).

Data set [1] concerns Vero cells infected with virus particles.
Data set [2] concerns African Swine Fever Virus (ASFV).

With `CCCCCCCCC(=O)O` [100% C9, pelargonic acid], in data set [1], the “CPE (first test)” value is recorded as 2/2 and the “CPE (second test)” value is reported as 2/2.

Regarding `CCCCCCCC(=O)O` [Composition F1, caprylic acid], in data set [2], the “Cq value for ASFV compared to positive control” value is “significantly increase the Cq value”.

As to `CCCCCC(=O)O` [100% C6, caproic acid], in data set [1], the “CPE (first test)” value is 3/3 and the “CPE (second test)” value is recorded as 3/3.

For the molecule `CCCCCCCCCCCC(=O)O` [100% C12, lauric acid], the “Solubility in the test solution” value in data set [1] is recorded as “solubility issue was observed”.

`CCCCCCCC(=O)O` [100% C8, caprylic acid]: in data set [1], the “CPE (first test)” value is reported as 2/2, the “CPE (second test)” value is given as 2/2 and the “Visual scoring of protection against the cytopathic effect of the virus” value is on record as “scored best”.

For the molecule `CCCCCCCCCC(=O)O` [100% C10, capric acid], in data set [1], the “CPE (first test)” value was 2/4 and the “CPE (second test)” value is on record as 2/4.
